What was measured:
[1] = molecular target: T1, OppAMTB (Mycobacterium tuberculosis, UniProt P9WGU5)
T1 construct: gene oppA

[2] = molecular target: OppA of M. tuberculosis (OppAMTB), substrate-binding polypeptide of the Rv1280c-Rv1283c peptide transporter, recombinant wild type (Mycobacterium tuberculosis) (UniProt P9WGU5); assay: radioligand binding
OppA of M. tuberculosis (OppAMTB), substrate-binding polypeptide of the Rv1280c-Rv1283c peptide transporter, recombinant wild type (Mycobacterium tuberculosis), sequence (P9WGU5 57-591): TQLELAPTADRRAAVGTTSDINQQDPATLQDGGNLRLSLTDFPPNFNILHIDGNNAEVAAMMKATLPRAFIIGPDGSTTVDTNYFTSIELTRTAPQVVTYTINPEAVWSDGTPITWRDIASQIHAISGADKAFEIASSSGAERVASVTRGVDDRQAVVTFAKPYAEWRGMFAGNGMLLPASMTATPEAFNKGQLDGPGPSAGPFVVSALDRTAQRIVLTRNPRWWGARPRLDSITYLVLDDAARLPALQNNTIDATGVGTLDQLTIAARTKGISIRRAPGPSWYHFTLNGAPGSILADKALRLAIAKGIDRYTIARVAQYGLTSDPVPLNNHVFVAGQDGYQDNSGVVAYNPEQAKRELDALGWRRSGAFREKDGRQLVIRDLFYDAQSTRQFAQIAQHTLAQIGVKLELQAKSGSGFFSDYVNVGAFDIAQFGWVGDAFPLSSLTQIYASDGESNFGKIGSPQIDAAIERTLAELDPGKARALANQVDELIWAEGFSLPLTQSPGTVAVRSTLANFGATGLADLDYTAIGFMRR

T1 sequence (P9WGU5 57-591): as above

| Compound | % GSH binding with 1 mM competitor [1] | amount bound at 1 mM GSH (pmol GSH/mg protein) [2] |
| --- | --- | --- |
| N[C@@H](CS)C(=O)NCC(=O)O [cys-gly] | dipeptide glu-cys was a more efficient competitor of GSH binding than the peptide cys-gly |  |
| N[C@@H](CCC(=O)N[C@@H](CS)C(=O)O)C(=O)O [glu-cys] | dipeptide glu-cys was a more efficient competitor of GSH binding than the peptide cys-gly |  |
| glutathione (tripeptide) |  | 146 |

Reference: article PMC2923189, “An Oligopeptide Transporter of Mycobacterium tuberculosis Regulates Cytokine Release and Apoptosis of Infected Macrophages” (PLoS ONE, 2010)
